According to patent publication US20240208988A1, “Alstonine Derivatives and Salts Thereof” (priority 2021, published 2024):
Entries after “also recorded” stand apart in the source; their conditions may differ. Where a name gives a salt, the structure may show the parent alone.

Tests used:
[1] = tested on: rodents; conditions: acute administration; literature data; cited from earlier work
[2] = tested on: Zebrafish (Danio rerio); test: Social interaction test in zebrafish exposed to MK-801; format: in vivo; conditions: for total distance traveled in the social interaction test / time spent in the interaction zone (social interaction), effect of the substance itself: main effect; for total distance traveled in the social interaction test: FIG. 3; for time spent in the interaction zone (social interaction), effect of the substance itself: two-way ANOVA, Bonferroni post hoc; for number of crossings in the social interaction test: main or interaction effect with MK-801, FIG. 4; for pre-exposure concentration at which MK-801 increased the number of crossings (Bonferroni post hoc): social interaction test, FIG. 4; for Social Interaction Test: Time immobile: 20 min drug pre-exposure, then 20 min MK-801 5 μM or water
Experimental: (§1) Here, the ability of alstonine salts to reverse schizophrenia-like symptoms produced by MK-801 in zebrafish was evaluated. The atypical antipsychotic olanzapine was used as a comparison.
(§2) Experiments were performed using male and female (50:50 ratio) short-fin wild-type zebrafish (4-month-old, 300-500 mg). Adult animals were obtained from a local commercial supplier (Delphis, RS, Brazil). The animals were maintained at Instituto de Ciências Básicas de Saúde in a light/dark cycle of 14/10 h with lights on at 7:00 a.m. for at least two weeks before tests. Fish were kept in 40-L (30×46×33 cm) unenriched glass tanks with non-chlorinated water at a maximum density of five animals per liter. Tank water satisfied the controlled conditions required for zebrafish (26±2° C.; pH 7.0±0.3; dissolved oxygen at 7.0±0.4 mg/L; total ammonia at <0.01 mg/L; total hardness at 5.8 mg/L; alkalinity at 22 mg/L CaCO3; conductivity of 1,500-1,600 μS/cm) and was constantly filtered by mechanical, biological, and chemical filtration systems. Food was provided twice a day as commercial flake food (Poytara®, SP, Brazil) plus brine shrimp (Artemia salina). The sex of the animals was confirmed after euthanasia by dissecting and analyzing the gonads. For all experiments, no sex effects were observed, so data was pooled together. Animals were euthanized by hypothermic shock according to the AVMA Guidelines for the Euthanasia of Animals (Leary and Johnson, 2020).
(§3) Olanzapine and MK-801 (dizocilpine) were purchased from Sigma-Aldrich (St. Louis, MO, USA). Alstonine hydrochloride and alstonine hydrobromide were prepared as described herein. MK-801 and either olanzapine or alstonine salt were dissolved in distilled water; alstonine salt stock solutions were sonicated in an ultrasonic bath. MK-801 solutions were freshly prepared, while alstonine salt stock solutions were kept refrigerated for up to five days. Exposure solutions were renovated halfway through the experiment, with a maximum of four fish exposed to the same solution.
(§4) Different sets of animals were used for each experiment, totaling 240 zebrafish in the study (plus 80 zebrafish serving as stimulus animals). Animals were individually exposed to water, olanzapine, or alstonine salt solutions at 2.5, 5, or 10 mg/L in 500-mL beakers containing 200-mL solution for 20 min. These concentrations were extrapolated from mice studies. Fish were then transferred to another beaker containing either water or MK-801 at 5 μM and remained there for another 20 minutes.
The protocol for the social interaction test in zebrafish followed the method described by Benvenutti et al. (2021) Journal of Neuroscience Research 00: 1-16. After exposure, animals were placed for 7 min in a tank (30×10×15 cm) flanked by two identical tanks (15×10×13 cm) either empty (neutral stimulus) or containing 10 unknown zebrafish (social stimulus). All three tanks were filled with water in standard conditions at a level of 10 cm. The position of the social stimulus (right or left) was counterbalanced throughout the tests. The water in the test tanks was changed between every animal. To assess social behavior, the test apparatus was virtually divided into three vertical zones (interaction, middle, and neutral). Animals were habituated to the apparatus for 2 min and then analyzed for the last 5 min. Videos were recorded from the front view and time spent in the interaction zone was quantified as a proxy for social interaction. Additionally, total distance traveled, number of crossings between the vertical zones of the tank and immobility time were quantified as secondary locomotor parameters. All outcomes were automatically scored using ANY-Maze software (Stoelting Co., Wood Dale, IL, USA).
GraphPad Prism 8 (version 8.4.3) for macOS was used to run the statistical analyses and plot the results. No animals were excluded, except for two data points in the open tank test due to a failure in video acquisition. […]

[3] = tested on: Zebrafish (Danio rerio); test: Open tank test in zebrafish exposed to MK-801; format: in vivo; conditions: for total distance in the open tank test: FIG. 7; for absolute turn angle in the open tank test: FIG. 8; for number of clockwise rotations in the open tank test: FIG. 9; for time spent immobile in the open tank test: for pretreatments: effect on the MK-801-induced increase, FIG. 10; for Open Tank Test: Absolute turn angle / Open Tank Test: Time immobile / Open Tank Test: Clockwise rotations / Open Tank Test: Total distance: immediately after social interaction test, 10 min; for Open Tank Test: Clockwise rotations / Open Tank Test: Total distance: bracket = kind of effect and concentration (mg/L)
Experimental: as §1, §2, §3, §4
The protocol for the open tank test followed the method described by Benvenutti et al. (2021) Journal of Neuroscience Research 00: 1-16. Immediately after the social interaction test, animals were placed in the center of the open tank arena and recorded for 10 min. The apparatus consisted of a white circular arena (24 cm in diameter and 8 cm in height, 2 cm water level). The apparatus format and the acquisition of videos from the top view allows the evaluation of locomotor parameters related to stereotypic behavior (circular movements and absolute turn angle). The water was changed between every animal. The following outcomes were automatically scored using ANY-Maze software (Stoelting Co., Wood Dale, IL, USA): total distance traveled, absolute turn angle, number of clockwise rotations, and immobility time.
GraphPad Prism 8 (version 8.4.3) for macOS was used to run the statistical analyses and plot the results. No animals were excluded, except for two data points in the open tank test due to a failure in video acquisition. Data were analyzed by two-way ANOVA, with alstonine salt or olanzapine pretreatment (Drug_1) and MK-801 treatment (Drug_2) as the main factors. Bonferroni post hoc test was applied as appropriate. The significant level was set at p<0.05. Data were expressed as mean standard deviation.

[4] = tested on: mice; conditions: cited from earlier work
[5] = tested on: D1, D2, and 5-HT2A receptors; conditions: cortex membranes; preliminary binding studies (Costa-Campos et al., 1998); cited from earlier work
[6] = tested on: dopamine (DA) uptake; conditions: mouse striatal synaptosomes (Linck et al. 2015); cited from earlier work

Row | SMILES | total distance traveled in the social interaction test [2] | number of crossings in the social interaction test [2] | pre-exposure concentration at which MK-801 increased the number of crossings (Bonferroni post hoc) [2] [mg/L] | total distance in the open tank test [3] | absolute turn angle in the open tank test [3] | number of clockwise rotations in the open tank test [3] | time spent immobile in the open tank test [3] | Open Tank Test: Absolute turn angle [3] | Open Tank Test: Time immobile [3] | Open Tank Test: Clockwise rotations [3] | Open Tank Test: Total distance [3] | Social Interaction Test: Time immobile [2] | other results
1 | CCN1CCCC1CNC(=O)c1cc(S(N)(=O)=O)ccc1OC (stereo not shown) [Sulpiride] |  |  |  |  |  |  |  |  |  |  |  |  | prevention of social interaction deficits caused by MK-801 [1]: acutely prevents the deficits caused by MK-801
2 | COC(=O)C1=CO[C@@H](C)[C@H]2C[n+]3ccc4c([nH]c5ccccc54)c3C[C@H]12.[Br-] [alstonine hydrobromide] | had no such effect | significant interaction | 10 | did not have an effect | no main effects for Drug_1 or interaction effects were observed | did not have a main effect or an interaction effect | did not have an effect | N.E.^1 | N.E.^1 | N.E.^1 | N.E.^1 |  | time spent immobile in the social interaction test ([2]; FIG. 5, hydrobromide): significant interaction; time spent immobile in the social interaction test ([2]; FIG. 5, listed as alstonine bromide, hydrobromide): reduced the effects of MK-801 at the highest concentrations tested; time spent in the interaction zone (social interaction), effect of the substance itself ([2]; FIG. 2, listed as alstonine bromide, hydrobromide): none of the concentrations decreased social isolation; also recorded: did not; prevention of the MK-801-induced decrease of social interaction time ([2]; pretreatment 20 min before MK-801 5 μM, FIG. 2): did not prevent the effects of MK-801
3 | COC(=O)C1=CO[C@@H](C)[C@@H]2Cn3ccc4c5ccccc5nc-4c3C[C@H]12 [alstonine] |  |  |  |  |  |  |  |  |  |  |  |  | antipsychotic profile in mice models ([4]; 0.5-1.0 mg/kg ip): antipsychotic properties; time to significant effects after intraperitoneal administration ([4]; mice, ip): ≤ 30 min; effect on [3H]SCH23390 or [3H]Spiperone binding [5]: does not affect; effect on DA uptake [6]: increasing DA uptake
4 | COC(=O)C1=CO[C@@H](C)[C@@H]2Cn3ccc4c5ccccc5nc-4c3C[C@H]12 [alstonine hydrochloride] | had no such effect | significant interaction | 5 | did not have an effect | no main effects for Drug_1 or interaction effects were observed | did not have a main effect or an interaction effect | did not have an effect | N.E.^1 | N.E.^1 | N.E.^1 | N.E.^1 | N.E.^1 | time spent in the interaction zone (social interaction), effect of the substance itself ([2]; FIG. 2, hydrochloride): animals exposed to 5 and 10 mg/L alstonine hydrochloride spent less time in the interaction zone as compared to controls; also recorded: decreased the interaction time
5 | Cc1cc2c(s1)Nc1ccccc1N=C2N1CCN(C)CC1 [olanzapine, reference compound] |  |  |  |  |  |  |  | N.E.^1 |  |  |  | N.E.^1 | 
6 | C[C@]12N[C@H](Cc3ccccc31)c1ccccc12 [MK-801, dizocilpine, reference compound] | increased the total distance traveled relative to controls | had no effect on the number of crossings |  | decreased the total distance relative to controls | decreased the absolute turn angle relative to controls | decreased the number of clockwise rotations relative to controls | increased the time spent immobile | ↓ | ↑ | ↓ | ↓ | = | Social Interaction Test: Crossings ([2]; Ctrl vs. MK within pretreatment level, bracket = concentration (mg/L)): =; time spent immobile in the social interaction test ([2]; FIG. 5): tended to decrease the time spent immobile; time spent in the interaction zone (social interaction), effect of the substance itself ([2]; FIG. 2): decreased social preference
